Experiments:
[1] = tested on: low pH-triggered HCV cell membrane fusion; assay: Fusion at the plasma membrane assay; type: cell-based, Hepatitis C virus; settings: 5 nM Con A, pH 5.0 wash 5 minutes
JcR2a = assay: HCV whole life cycle compound screening assay; type: cell-based, Hepatitis C virus; settings: Jc1 reporter virus, versus flunarizine
[2] = tested on: Jc1 and HCV strains Con1 (GT1b), J8 (GT2b), S52 (GT3a), ED43 (GT4a), SA13 (GT5a), HK6a (GT6a) and QC69 (GT7a); type: cell-based; settings: Jc1 versus GT1b, 2b, 3a, 4a, 5a, 6a, 7a strains
J8 (GT2b) = type: cell-based
JcR2a/J8-E1-R3.2_4 aa = type: cell-based, Hepatitis C virus; settings: M290A, W299N, V301T, P310Q
Jc1R2a/J8-E1 chimera = type: cell-based; settings: entire E1 replaced
JcR2a/J8-E1_R1 = type: cell-based; settings: Aa 192-230
Jc1/J8-E1_R3 = type: cell-based; settings: Aa 267-312
JcR2a-E1 R4 = type: cell-based; settings: 313-383
JcR2a-Flun-R [3] = settings: Jc1 passaged in presence of flunarizine; Perin et al.; cited from earlier work
[4] = tested on: low pH-triggered HCV cell membrane fusion; settings: earlier work of the applicant, data not shown; cited from earlier work
JcR2a-Flun-R [5] = type: cell-based

Row | Molecule | antiviral activity, effect of the substituent (SAR, in words) (JcR2a) | strain-dependent antiviral activity (in words) [2] | resistance of J8 (GT2b) (in words) (J8 (GT2b)) | resistance of JcR2a/J8-E1-R3.2_4 aa, shift of the IC50 versus parental JcR2a (JcR2a/J8-E1-R3.2_4 aa) | other results
1 | COc1ccc(-c2cc(=O)c3c(O)c(O)c(OC)cc3o2)cc1 [BJ486K] |  |  |  |  | inhibition of HCV infection when administered only during the low pH washing step [1]: did not inhibit HCV infection
2 | C/C(=C\c1ccccc1)CN1CCN(C(c2ccc(F)cc2)c2ccc(F)cc2)CC1 [entry 20] | not beneficial |  |  |  | 
3 | CN1CCN(C(c2ccccc2)c2ccc(Cl)cc2)CC1 (centres unmarked) [chlorcyclizine] |  | preferentially inhibited Jc1 | pronounced resistance | 6 fold | 
4 | p-methoxy-flunarizine | beneficial |  | pronounced resistance |  | dose at which cell viability of treated cells was reduced by 50% (Huh-7.5-fluc cells): 9.6 µM
5 | Fc1ccc(C(c2ccc(F)cc2)N2CCN(C/C=C/c3ccccc3)CC2)cc1 [flunarizine] |  | preferentially inhibited Jc1 | pronounced resistance | 8 fold | susceptibility of chimeric virus with J8-derived E1 (in words) (Jc1R2a/J8-E1 chimera): resistant; susceptibility of chimera with J8 E1 region R1 (in words) (JcR2a/J8-E1_R1): partial resistance; susceptibility of chimera with J8 E1 region R3 (in words) (Jc1/J8-E1_R3): resistance profile comparable to Jc1 encoding the flunarizine resistance mutations; susceptibility of chimera with J8 E1 region R4 (in words) (JcR2a-E1 R4): partial resistance; resistance conferred by three mutations in E1 and E2 (JcR2a-Flun-R [3]): ca. 50 fold; antiviral activity when applied only during the 5 minute low pH wash [4]: full antiviral activity
6 | COc1cc(/C=C/C(=O)CC(=O)/C=C/c2ccc(O)c(OC)c2)ccc1O [curcumin] |  | similarly active against all tested viruses |  | not | inhibition of JcR2a-Flun-R compared with JcR2a (in words) (JcR2a-Flun-R [5]): equally inhibited

From patent US20220024879A1, “COMPOUNDS FOR TREATMENT OF HEPACI VIRUS INFECTION AND METHOD FOR DETERMINING THERAPY OF HEPACI VIRUS INFECTION, IN PARTICULAR, HCV INFECTION” (priority 2018, published 2022)
